Values joined by “and” are separate entries in the source; they are usually repeats but may differ in a detail not shown here. Equal values may be shown once. Where a name gives a salt, the structure may show the parent alone. Read-outs that look alike come from different tables or passages of the source.
What was measured:
Type in all cases: in vivo, beagle dogs
[1] = Oral administration of propranolol-o-hemi-succinate HCl and propranolol HCl; plasma levels of free propranolol (Example 2)
Method: In this experiment, four beagle dogs were given an 80 mg. oral dose of propranolol HCl or an equivalent dose of the o-hemi-succinate. The animals were divided into two groups of two, each group receiving the drugs according to a crossover design. The crossover experiment was repeated twice. A period of at least one week elapsed between each dosing day. Blood samples were obtained at regular intervals after dosing a plasma was analyzed for free propranolol concentrations.
(§1) Plasma was analyzed for free propranolol by a TLC fluorometric procedure. Two ml samples were mixed with 2 ml of pH 10 buffer and extracted with 25 ml of ethyl ether. A 20 ml aliquot from the ether phase was evaporated to dryness and the dry residue was dissolved in 100 μl of ethanol. Twenty-five μl aliquots were spotted on TLC plates of silica gel along with standard solutions of propranolol. The plates were developed in a saturated tank containing the solvent system methanol (100 ml): concentrated NH4 OH (0.4 ml). After development, the plates were dried and sprayed with a 50% solution of propylene glycol in water. They were then read in the fluorescence mode of a Schoeffel spectrodensitometer. The limit of reliable quantitation was 2 ng. of propranolol per ml of plasma.

[2] = Intravenous administration of propranolol HCl and propranolol-o-hemi-succinate HCl; plasma levels of free propranolol (Example 3)
Method: as §1
In this experiment, the same four dogs used in Example 2 were administered a 20 mg intravenous dose of propranolol HCl on one experimental day and an equivalent dose of the o-hemi-succinate on a second day. A period of one week elapsed between each administration. Blood samples were collected and analyzed as above.

[3] = Oral administration of a reduced dose of propranolol-o-hemi-succinate hydrochloride; plasma levels of free propranolol (Example 4)
Method: Two beagle dogs were given an oral dose of 13.4 mg of propranolol-O-hemi-succinate hydrochloride (equivalent to 10 mg. propranolol HCl). Blood samples were obtained at regular intervals after drug administration and plasma analyzed for free propranolol. Plasma levels of free propranolol were compared to those obtained following administration of 80 mg dose of propranolol HCl.

[4] = Intravenous propranolol-o-hemi-succinate hydrochloride; plasma levels of unchanged ester and free propranolol (Example 5)
Method: (§2) Four beagle dogs were administered propranolol-o-hemi-succinate hydrochloride either intravenously or orally. The dogs were divided into two groups of two, each group receiving each dosing regimen according to a crossover design. The oral doses consisted of 107 mg of propranolol-o-hemi-succinate hydrochloride (equivalent to 80 mg propranolol HCl) and the intravenous doses consisted of 26.7 mg of propranolol-o-hemi-succinate hydrochloride (equivalent to 20 mg propranolol HCl). Blood samples were collected at regular intervals after dosing and plasma was analyzed for free propranolol and unchanged propranolol-o-hemi-succinate hydrochloride.
(§3) Plasma was analyzed for propranolol-o-hemi-succinate hydrochloride by a TLC fluorometric procedure. Two ml samples were mixed with 2 ml of pH 4 buffer and extracted with 40 ml of methylene chloride. A 30 ml aliquot from the organic phase was evaporated to dryness and the residue was dissolved in 100 μl of ethanol. Twenty-five μl aliquots were spotted on TLC plates of silica gel along with standard solutions of propranolol-o-hemi-succinate hydrochloride. The plates were developed in saturated tank containing the solvent system: isopropyl alcohol (55 ml), benzene (40 ml), water (5 ml), formic acid (3 ml). After developement, the plates were dried and sprayed with a 50% solution of propylene glycol in water. They were read in the fluorescence mode of a Schoeffel spectrodensitometer. The limit of reliable quantitation was 25 ng per ml of plasma.

[5] = Oral propranolol-o-hemi-succinate hydrochloride; plasma levels of unchanged ester and free propranolol (Example 5)
Method: as §2, §3

[6] = 80 mg propranolol HCl or equivalent

- Absorption of the succinate and its conversion to propranolol [1]: rapid
- plasma levels of free propranolol relative to equivalent dose of propranolol hydrochloride [1]: eight times higher
- C.V. of overall mean AUC 0-6 hr [1, 6]: 41%
- s.d. of overall mean AUC 0-6 hr [1, 6]: 445 ng·h/mL
- Plasma level of propranolol following oral administration, compared with propranolol hydrochloride ([1]; equivalent dose): considerably higher
- reduction of fluctuation in plasma levels following the pro-drug, as revealed by AUC values ([1]; vs propranolol hydrochloride): 35%
- Plasma levels of free propranolol compared with propranolol i.v. ([2]; equivalent dose): lower
- Conversion of the propranolol ester to propranolol ([2]; i.v.): very fast
- levels of propranolol found 5 minutes after administration ([2]; i.v., 5 minutes): high levels
- Plasma level of free propranolol ([3]; 6 hours after dosing, 80 mg propranolol HCl or 13.4 mg hemi-succinate HCl, individual dogs, Hydrochloride): Trace
- levels of free propranolol at a dose 1/8 that of propranolol HCl ([3]; dogs, vs propranolol HCl, only two dogs): comparable levels
- Plasma level of unchanged propranolol-o-hemi-succinate HCl ([4]; 0 h, i.v. 26.7 mg, individual dogs, in ng/mL): 0
- Plasma level of unchanged propranolol-o-hemi-succinate HCl ([4]; 1/2 hr, i.v. 26.7 mg, individual dogs, 30 min, Hydrochloride): 692 ng/mL and 1130 ng/mL and 811 ng/mL and 487 ng/mL
- Plasma level of unchanged propranolol-o-hemi-succinate HCl ([4]; 5 min, i.v. 26.7 mg, individual dogs, Hydrochloride): 2770 ng/mL and 2540 ng/mL and 1430 ng/mL
- Plasma level of unchanged propranolol-o-hemi-succinate HCl ([4]; 10 min, i.v. 26.7 mg, individual dogs, Hydrochloride): 1590 ng/mL and 2350 ng/mL and 1780 ng/mL and 946 ng/mL
- Plasma level of unchanged propranolol-o-hemi-succinate HCl ([4]; 15 min, i.v. 26.7 mg, individual dogs, Hydrochloride): 1210 ng/mL and 1760 ng/mL and 1340 ng/mL and 819 ng/mL
- Plasma level of unchanged propranolol-o-hemi-succinate HCl ([4]; 1 hr, i.v. 26.7 mg, individual dogs, Hydrochloride, 60 min): 366 ng/mL and 198 ng/mL
- Plasma level of unchanged propranolol-o-hemi-succinate HCl ([4]; 2 hrs, i.v. 26.7 mg, individual dogs, Hydrochloride, 120 min): 91 ng/mL and 76 ng/mL and 132 ng/mL and 30 ng/mL
- Plasma level of unchanged propranolol-o-hemi-succinate HCl ([4]; 4 hrs, i.v. 26.7 mg, individual dogs, * = estimate only, below level of reliable quantitation, Hydrochloride): Trace
- Plasma level of unchanged propranolol-o-hemi-succinate HCl ([4]; 6 hrs, i.v. 26.7 mg, individual dogs): Trace
- Mean plasma level of unchanged propranolol-o-hemi-succinate HCl ([4]; 6 hrs, i.v. 26.7 mg, mean): Trace
- half-life of free propranolol ([4]; after i.v. succinate ester): two
- half-life ([4]; dog, plasma, 26.7 mg, following intravenous dosing, read-out: t 1/2 of disappearance of propranolol-o-hemi-succinate hydrochloride): 30 min
- concentration at 0.5 h ([4]; dog, plasma, iv, 26.7 mg, 1/2 hr, i.v. 26.7 mg, mean, read-out: Mean plasma level of unchanged propranolol-o-hemi-succinate HCl): 781 ng/mL
- concentration at 5 min ([4]; dog, plasma, iv, 26.7 mg, 5 min, i.v. 26.7 mg, individual dogs, read-out: Plasma level of unchanged propranolol-o-hemi-succinate HCl): 2200 ng/mL
- concentration at 5 min ([4]; dog, plasma, iv, 26.7 mg, 5 min, i.v. 26.7 mg, mean, read-out: Mean plasma level of unchanged propranolol-o-hemi-succinate HCl): 2240 ng/mL
- concentration at 10 min ([4]; dog, plasma, iv, 26.7 mg, 10 min, i.v. 26.7 mg, mean, read-out: Mean plasma level of unchanged propranolol-o-hemi-succinate HCl): 1670 ng/mL
- concentration at 0.25 h ([4]; dog, plasma, iv, 26.7 mg, 15 min, i.v. 26.7 mg, mean, read-out: Mean plasma level of unchanged propranolol-o-hemi-succinate HCl): 1280 ng/mL
- concentration at 1 h ([4]; dog, plasma, iv, 26.7 mg, 1 hr, i.v. 26.7 mg, individual dogs, read-out: Plasma level of unchanged propranolol-o-hemi-succinate HCl): 287 ng/mL
- concentration at 1 h ([4]; dog, plasma, iv, 26.7 mg, 1 hr, i.v. 26.7 mg, mean, read-out: Mean plasma level of unchanged propranolol-o-hemi-succinate HCl): 284 ng/mL
- concentration at 2 h ([4]; dog, plasma, iv, 26.7 mg, 2 hrs, i.v. 26.7 mg, mean, read-out: Mean plasma level of unchanged propranolol-o-hemi-succinate HCl): 82 ng/mL
- concentration at 4 h ([4]; dog, plasma, iv, 26.7 mg, 4 hrs, i.v. 26.7 mg, individual dogs, * = estimate only, below level of reliable quantitation, read-out: Plasma level of unchanged propranolol-o-hemi-succinate HCl): ~15 ng/mL
- concentration at 4 h ([4]; dog, plasma, iv, 26.7 mg, 4 hrs, i.v. 26.7 mg, mean, * = estimate only, below level of reliable quantitation, read-out: Mean plasma level of unchanged propranolol-o-hemi-succinate HCl): ~4 ng/mL
- AUC(0-t) at 6 h ([4]; dog, plasma, iv, 26.7 mg, i.v. 26.7 mg, mean, read-out: Mean AUC 0-6 hr of unchanged propranolol-o-hemi-succinate HCl): 1230 ng·h/mL
- AUC 0-6 hr of unchanged propranolol-o-hemi-succinate HCl ([4]; i.v. 26.7 mg, individual dogs, Hydrochloride, 360 min): 1160 ng·h/mL and 1530 ng·h/mL and 1520 ng·h/mL and 711 ng·h/mL
- Mean plasma level of unchanged propranolol-o-hemi-succinate HCl ([4]; i.v. 26.7 mg, mean): 0
- ester left 4 hours after administration ([4]; i.v., 4 hours): virtually none
- plasma levels of free propranolol 6 hours after administration of the succinate ester ([4]; i.v., 6 hours): significant plasma levels still existed
- Plasma level of unchanged propranolol-o-hemi-succinate HCl ([5]; 0 h, oral 107 mg, individual dogs, in ng/mL): 0
- Mean plasma level of unchanged propranolol-o-hemi-succinate HCl ([5]; 0 h, oral 107 mg, mean): 0
- Plasma level of unchanged propranolol-o-hemi-succinate HCl ([5]; 1 hr, oral 107 mg, individual dogs, Hydrochloride, 60 min): 2950 ng/mL and 1900 ng/mL and 3240 ng/mL and 1320 ng/mL
- Plasma level of unchanged propranolol-o-hemi-succinate HCl ([5]; 2 hrs, oral 107 mg, individual dogs, Hydrochloride, 120 min): 715 ng/mL and 390 ng/mL and 486 ng/mL and 268 ng/mL
- Plasma level of unchanged propranolol-o-hemi-succinate HCl ([5]; 6 hrs, oral 107 mg, individual dogs, * = estimate only, below level of reliable quantitation, Hydrochloride): 0 ng/mL
- Plasma level of unchanged propranolol-o-hemi-succinate HCl ([5]; 6 hrs, oral 107 mg, individual dogs, * = estimate only, below level of reliable quantitation, Hydrochloride, 360 min): 20 ng/mL and 13 ng/mL and 8 ng/mL
- concentration at 0.5 h ([5]; dog, plasma, po, 107 mg, 1/2 hr, mean, read-out: Mean plasma level of unchanged propranolol-o-hemi-succinate HCl): 1760 ng/mL
- concentration at 1 h ([5]; dog, plasma, po, 107 mg, 1 hr, mean, read-out: Mean plasma level of unchanged propranolol-o-hemi-succinate HCl): 2350 ng/mL
- concentration at 2 h ([5]; dog, plasma, po, 107 mg, 2 hrs, mean, read-out: Mean plasma level of unchanged propranolol-o-hemi-succinate HCl): 465 ng/mL
- concentration at 4 h ([5]; dog, plasma, po, 107 mg, 4 hrs, mean, read-out: Mean plasma level of unchanged propranolol-o-hemi-succinate HCl): 62 ng/mL
- concentration at 6 h ([5]; dog, plasma, po, 107 mg, 6 hrs, mean, * = estimate only, below level of reliable quantitation, read-out: Mean plasma level of unchanged propranolol-o-hemi-succinate HCl): ~10 ng/mL
- AUC(0-t) at 6 h ([5]; dog, plasma, po, 107 mg, mean, read-out: Mean AUC 0-6 Hrs. of unchanged propranolol-o-hemi-succinate HCl): 3470 ng·h/mL
SMILES: CC(C)NCC(COc1cccc2ccccc12)OC(=O)CCC(=O)O (stereo not drawn) [propranolol-o-hemi-succinate HCl, Butanedioic Acid Monol[[2-(1-Methylethyl] Amino] -1-[(1-Naphthalenyloxy) Methyl] Ethyl] Ester Hydrochloride]
- AUC 0-6 Hrs. of unchanged propranolol-o-hemi-succinate HCl ([5]; oral 107 mg, individual dogs, Hydrochloride, 360 min): 3590 ng·h/mL and 3366 ng·h/mL and 4818 ng·h/mL and 2121 ng·h/mL
